Patent publication US20110021565A1, “PIPERIDINE DERIVATIVES AS NK3 ANTAGONISTS” (priority 2007, published 2011)
Read-outs that look alike come from different tables or passages of the source.

Target: T1, recombinant human NK3 receptor (Homo sapiens, UniProt P29371)
T1 construct: expressed in transfected cells; host or cells: HEK293 cells, transient expression; membrane preparation
T1 sequence (P29371 1-465): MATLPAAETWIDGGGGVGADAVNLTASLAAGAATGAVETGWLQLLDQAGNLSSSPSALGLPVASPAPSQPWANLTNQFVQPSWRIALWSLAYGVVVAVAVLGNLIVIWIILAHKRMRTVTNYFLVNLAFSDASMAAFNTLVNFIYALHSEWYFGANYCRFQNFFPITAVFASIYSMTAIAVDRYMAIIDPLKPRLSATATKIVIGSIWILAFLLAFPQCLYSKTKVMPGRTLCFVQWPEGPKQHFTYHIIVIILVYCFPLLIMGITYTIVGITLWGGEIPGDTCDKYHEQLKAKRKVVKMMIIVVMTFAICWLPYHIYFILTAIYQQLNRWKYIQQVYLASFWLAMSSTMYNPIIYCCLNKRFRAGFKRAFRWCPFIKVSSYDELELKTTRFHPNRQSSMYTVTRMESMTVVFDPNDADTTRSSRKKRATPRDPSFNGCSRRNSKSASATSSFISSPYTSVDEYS
Assay: [3H]SR142801 competition binding assay
Procedure: [^3H]SR142801 Competition Binding Assay
hNK3 receptor binding experiment were performed using [^3H]SR142801 (Catalog No. TRK1035, specific activity: 74.0 Ci/mmol, Amersham, GE Healthcare UK limited, Buckinghamshire, UK) and membrane isolated from HEK293 cells transiently expressing recombinant human NK3 receptor. After thawing, the membrane homogenates were centrifuged at 48,000×g for 10 min at 4° C., the pellets were resuspended in the 50 mM Tris-HCl, 4 mM MnCl2, 1 μM phosphoramidon, 0.1% BSA binding buffer at pH 7.4 to a final assay concentration of 5 μg protein/well. For inhibition experiments, membranes were incubated with [^3H]SR142801 at a concentration equal to KD value of radioligand and 10 concentrations of the inhibitory compound (0.0003-10 μM) (in a total reaction volume of 500 μl) for 75 min at room temperature (RT). At the end of the incubation, membranes were filtered onto unitfilter (96-well white microplate with bonded GF/C filter preincubated 1 h in 0.3% PEI+0.3% BSA, Packard BioScience, Meriden, Conn.) with a Filtermate 196 harvester (Packard BioScience) and washed 4 times with ice-cold 50 mM Tris-HCl, pH 7.4 buffer. Nonspecific binding was measured in the presence of 10 μM SB222200 for both radioligands. The radioactivity on the filter was counted (5 min) on a Packard Top-count microplate scintillation counter with quenching correction after addition of 45 μl of microscint 40 (Canberra Packard S. A., Zurich, Switzerland) and shaking for 1 h. Inhibition curves were fitted according to the Hill equation: y=100/(1+(x/IC50)^nH), where nH=slope factor using Excel-fit 4 software ([…]). IC50 values were derived from the inhibition curve and the affinity constant (IQ values were calculated using the Cheng-Prussoff equation Ki=IC50/(1+[L]/KD) where [L] is the concentration of radioligand and KD is its dissociation constant at the receptor, derived from the saturation isotherm. All experiments were performed in duplicate and the mean±standard error (SEM) of the individual Ki values was calculated.

[1] = [3H]SR142801, membranes of HEK293 cells transiently expressing recombinant human NK3 receptor, read-out: hNK3 Ki
[2] = representative compounds, [3H]SR142801, HEK293 membranes, human NK3 receptor, read-out: Ki NK3 h

| SMILES | Ki [1] | Ki [2] |
| --- | --- | --- |
| CC(=O)N(C)C1CCN(CCC(C)(C(=O)NCc2ccc(C(F)(F)F)c(F)c2)c2ccc(Cl)c(Cl)c2)CC1 (stereo not shown) [Example 99, 4-[4-(Acetyl-methyl-amino)-piperidin-1-yl]-2-(3,4-dichloro-phenyl)-N-(3-fluoro-4-trifluoromethyl-benzyl)-2-methyl-butyramide] | 5.8 nM | 5.8 nM |
| CCN(C1CCN(CCC(C)(C(=O)N(C)Cc2cccc(Cl)c2)c2ccc(Cl)c(Cl)c2)CC1)S(C)(=O)=O (stereo not shown) [Example 75, N-(3-Chloro-benzyl)-2-(3,4-dichloro-phenyl)-4-[4-(ethyl-methanesulfonyl-amino)-piperidin-1-yl]-2,N-dimethyl-butyramide] | 3.9 nM | 3.9 nM |
| CC[C@@H](NC(=O)C(C)(CCN1CCC(N(CC)C(C)=O)CC1)c1ccc(Cl)c(Cl)c1)c1ccccc1 (stereo partly drawn) [Example 169, 4-[4-(Acetyl-ethyl-amino)-piperidin-1-yl]-2-(3,4-dichloro-phenyl)-2-methyl-N-((R)-1-phenyl-propyl)-butyramide] | 57.6 nM | – |
| CN(Cc1ccc(Cl)cc1)C(=O)C(CCN1CCC(N2CCCC2=O)CC1)c1ccc(Cl)cc1Cl (stereo not shown) [Example 112, N-(4-Chloro-benzyl)-2-(2,4-dichloro-phenyl)-N-methyl-4-[4-(2-oxo-pyrrolidin-1-yl)-piperidin-1-yl]-butyramide] | 128 nM | – |
| COCCN(C(C)=O)C1CCN(CCC(C)(C(=O)N[C@H](CO)c2ccc(Cl)c(Cl)c2)c2ccc(Cl)c(Cl)c2)CC1 (stereo partly drawn) [Example 149, 4-{4-[Acetyl-(2-methoxy-ethyl)-amino]-piperidin-1-yl}-2-(3,4-dichloro-phenyl)-N-[(S)-1-(3,4-dichloro-phenyl)-2-hydroxy-ethyl]-2-methyl-butyramide (diastreoisomer 2)] | 19.4 nM | – |
| CCN(C1CCN(CCC(C)(C(=O)N(C)Cc2ccc(Cl)c(C(F)(F)F)c2)c2ccc(Cl)c(Cl)c2)CC1)S(C)(=O)=O (stereo not shown) [Example 73, N-(4-Chloro-3-trifluoromethyl-benzyl)-2-(3,4-dichloro-phenyl)-4-[4-(ethyl-methanesulfonyl-amino)-piperidin-1-yl]-2,N-dimethyl-butyramide] | 1.5 nM | 1.5 nM |

Results, then the compound that gave them:

| Ki [1] | Ki [2] | SMILES |
| --- | --- | --- |
| 8.1 nM | 8.1 nM | CN(Cc1ccc(Cl)cc1)C(=O)C(CCN1CCC(N2CCCC2=O)CC1)c1ccc(Cl)c(Cl)c1 (stereo not shown) [Example 115, N-(4-Chloro-benzyl)-2-(3,4-dichloro-phenyl)-N-methyl-4-[4-(2-oxo-pyrrolidin-1-yl)-piperidin-1-yl]-butyramide] |
| 23.2 nM | – | CN(Cc1ccc(F)c(C(F)(F)F)c1)C(=O)C(C)(CCN1CCC(NS(C)(=O)=O)CC1)c1ccc(Cl)c(Cl)c1 (stereo not shown) [Example 3, 2-(3,4-Dichloro-phenyl)-N-(4-fluoro-3-trifluoromethyl-benzyl)-4-(4-methanesulfonyl-amino-piperidin-1-yl)-2,N-dimethyl-butyramide] |
| 3.6 nM | 3.6 nM | CN(Cc1ccc(Cl)c(C(F)(F)F)c1)C(=O)C(C)(CCN1CCC(N(C2CC2)S(C)(=O)=O)CC1)c1ccc(Cl)c(Cl)c1 (stereo not shown) [Example 58, N-(4-Chloro-3-trifluoromethyl-benzyl)-4-[4-(cyclopropyl-methanesulfonyl-amino)-piperidin-1-yl]-2-(3,4-dichloro-phenyl)-2,N-dimethyl-butyramide] |
| 387 nM | – | CN(Cc1ccc(Cl)cc1)C(=O)C(CCN1CCC(N2CCCC2=O)CC1)c1ccc(Cl)nc1 (stereo not shown) [Example 117, N-(4-Chloro-benzyl)-2-(6-chloro-pyridin-3-yl)-N-methyl-4-[4-(2-oxo-pyrrolidin-1-yl)-piperidin-1-yl]-butyramide] |
| 34.9 nM | – | CCN(C(C)=O)C1CCN(CCC(C)(C(=O)N[C@@H](CO)c2ccc(F)cc2)c2ccc(Cl)c(Cl)c2)CC1 (single isomer, unassigned; epimer 2) [Example 167] |
